The structures appear in SMILES notation.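 In this assay, cells in 96-well plates receive the compound at five concentrations for 48 hours. Endpoints are linearly interpolated between the surrounding concentrations. Abbreviation: GI50, concentration required for 50% inhibition of growth. TGI: concentration producing complete growth inhibition.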

Test systems include OVCAR-4 ovarian; HCC-2998 colon; RXF 393 renal; NCI-H226 lung; OVCAR-5 ovarian; BT-549 breast; DU-145 prostate; NCI-H23 lung; NCI-H522 lung; EKVX NSCLC.
What all share (assay): NCI tumour cell line growth inhibition, 48 h

Consider `COC(=O)c1cc2ccccc2c2c3c(ccc12)OCO3`, for which the GI50 in the assay with OVCAR-4 ovarian was 22.3 µM; in the assay with HCC-2998 colon it was 562 µM; in the assay on RXF 393 renal, 14.8 µM; with NCI-H226 lung, 26.4 µM; with OVCAR-5 ovarian, 223 µM; in the assay on BT-549 breast, 47.1 µM. The GI50 with DU-145 prostate was 109 µM; with NCI-H23 lung, 161 µM. In addition, the TGI was 133 µM in the assay on OVCAR-4 ovarian; above 1000 µM with HCC-2998 colon; 89.5 µM in the assay with RXF 393 renal; 146 µM with NCI-H226 lung; above 1000 µM in the assay on OVCAR-5 ovarian; 482 µM with BT-549 breast. The TGI in the assay with DU-145 prostate and in the assay on NCI-H23 lung was above 1000 µM each time.

Regarding `COc1cc([N+](=O)[O-])c(OC)cc1-c1nc2sccn2c1/C=N/N=C(N)N`, the GI50 was 52.2 µM in the assay with OVCAR-4 ovarian; 21 µM in the assay on NCI-H522 lung; 50.1 µM in the assay with RXF 393 renal; 53.8 µM in the assay with OVCAR-5 ovarian; 18.6 µM in the assay with BT-549 breast; 25.9 µM in the assay on EKVX NSCLC. The GI50 in the assay on DU-145 prostate is 30.4 µM; in the assay on NCI-H23 lung, 14.8 µM. Besides, the TGI with OVCAR-4 ovarian was above 100 µM; in the assay on NCI-H522 lung, above 100 µM; with RXF 393 renal, above 100 µM; in the assay with OVCAR-5 ovarian it was above 100 µM; in the assay on BT-549 breast, 42.2 µM; with EKVX NSCLC it was 73.6 µM. Further, the results for the TGI in the assay on DU-145 prostate and in the assay with NCI-H23 lung were above 100 µM and 71.9 µM, respectively.

For `CC(C)CCNCC(O)Cn1c2ccccc2c2ccccc21` (stereo not given), the GI50 was 12.9 µM in the assay on OVCAR-4 ovarian; 2.06 µM with HCC-2998 colon; 13.6 µM in the assay on NCI-H522 lung; 5.36 µM in the assay with RXF 393 renal; 15.7 µM in the assay on NCI-H226 lung; 12.4 µM in the assay on OVCAR-5 ovarian. Further, the GI50 with BT-549 breast was 16.5 µM; with DU-145 prostate, 14.6 µM; with NCI-H23 lung, 16.4 µM. Besides, the TGI amounted to 27.2 µM in the assay on OVCAR-4 ovarian; 4.22 µM with HCC-2998 colon; 27.7 µM in the assay with NCI-H522 lung; 19.9 µM with RXF 393 renal; 37.9 µM in the assay on NCI-H226 lung; 25.7 µM in the assay with OVCAR-5 ovarian. Further, the TGI with BT-549 breast amounted to 31.4 µM; in the assay on DU-145 prostate, 27.9 µM; in the assay on NCI-H23 lung, 31.9 µM.

On to `Oc1c(Cl)c(Cl)c(O)c2c1CCCC2`, for which the TGI with HCC-2998 colon was determined as 30.6 µM; in the assay with RXF 393 renal, 22.5 µM; in the assay on BT-549 breast, 28.1 µM; in the assay on EKVX NSCLC it was 21.4 µM; in the assay on NCI-H23 lung, 40.8 µM.

Consider `c1ccc2[nH]c(-c3cc(-c4ccc5c(c4)OCO5)n[nH]3)nc2c1`, for which the GI50 in the assay with OVCAR-4 ovarian is 2.16 µM; with HCC-2998 colon, 3.74 µM; with NCI-H522 lung it was 1.98 µM; with RXF 393 renal it was 2.36 µM; in the assay with NCI-H226 lung, 4.2 µM; in the assay on OVCAR-5 ovarian, 14.9 µM. For the same molecule, the GI50 with BT-549 breast was 2.12 µM; with DU-145 prostate, 7.27 µM; in the assay with NCI-H23 lung it was 4.47 µM. Also, the TGI amounted to 12 µM in the assay on OVCAR-4 ovarian; 14 µM with HCC-2998 colon; 10.3 µM with NCI-H522 lung; 12.1 µM with RXF 393 renal; 21 µM with NCI-H226 lung; 34.3 µM in the assay with OVCAR-5 ovarian. The TGI in the assay on BT-549 breast turned out to be 13 µM; in the assay on DU-145 prostate, 22 µM; in the assay on NCI-H23 lung, 19.3 µM.

With `COc1ccc(C2=CC(c3ccc(OC)cc3Br)N3C=CSC3=N2)cc1` (stereo not given), the GI50 in the assay on OVCAR-4 ovarian was 5.04 µM; with HCC-2998 colon, 5.38 µM; with NCI-H522 lung it was 5.22 µM; in the assay on RXF 393 renal, 7.67 µM; in the assay with NCI-H226 lung it was 14.7 µM; with OVCAR-5 ovarian, 12.4 µM. Besides, the GI50 was 3.19 µM in the assay on BT-549 breast, 11.9 µM in the assay with DU-145 prostate and 15.2 µM with NCI-H23 lung. Besides, the TGI was 27.3 µM with OVCAR-4 ovarian; 17.8 µM in the assay on HCC-2998 colon; 20.7 µM with NCI-H522 lung; 22 µM with RXF 393 renal; 37.8 µM in the assay on NCI-H226 lung; 32.3 µM with OVCAR-5 ovarian. The TGI was 12.1 µM in the assay with BT-549 breast, 33.1 µM in the assay with DU-145 prostate and 42.8 µM in the assay with NCI-H23 lung.

With `Nc1c(C(=O)c2cccc(-c3cccnc3)c2)cnn1-c1ccc(F)cc1F`, the GI50 in the assay on OVCAR-4 ovarian is 7.77 µM; with HCC-2998 colon, 9.43 µM; in the assay with NCI-H522 lung, 1.57 µM; in the assay with RXF 393 renal it was 7.91 µM; with NCI-H226 lung, 6.96 µM; with OVCAR-5 ovarian it was above 19.6 µM. Besides, the GI50 was 5.91 µM in the assay on BT-549 breast, 12 µM with DU-145 prostate and 4.41 µM with NCI-H23 lung. Also, the TGI is above 25 µM in the assay with OVCAR-4 ovarian; above 25 µM in the assay on HCC-2998 colon; above 15 µM in the assay on NCI-H522 lung; above 25 µM with RXF 393 renal; above 25 µM in the assay with NCI-H226 lung; above 25 µM in the assay on OVCAR-5 ovarian. In addition, the TGI with BT-549 breast, in the assay with DU-145 prostate and with NCI-H23 lung was above 25 µM each time.

As to `COc1cnc2c(c1)C(=O)c1c-2n(CCCNC2=NCCS2)c(=O)c2cc(Cl)ccc12`, the GI50 is 1.42 µM in the assay on OVCAR-4 ovarian; 1.36 µM in the assay on HCC-2998 colon; 0.783 µM in the assay on RXF 393 renal; 0.687 µM in the assay on NCI-H226 lung; 1.82 µM in the assay on OVCAR-5 ovarian; 1.05 µM with BT-549 breast. Further, the GI50 is 1.64 µM with EKVX NSCLC, 0.0929 µM with DU-145 prostate and 0.3 µM with NCI-H23 lung. The TGI was 2.95 µM in the assay on OVCAR-4 ovarian; 2.68 µM in the assay on HCC-2998 colon; 2.2 µM in the assay on RXF 393 renal; 2.29 µM in the assay with NCI-H226 lung; 3.45 µM with OVCAR-5 ovarian; 2.56 µM with BT-549 breast. Further, the TGI in the assay on EKVX NSCLC stood at 3.39 µM; with DU-145 prostate, 1.83 µM; with NCI-H23 lung, 2.11 µM.

In the case of `Cc1nn(C)c(COc2ccc(N3CCN(S(=O)(=O)N(C)C)CC3)cc2)c1-c1cccc2c(CCCOc3cccc4ccccc34)c(C(=O)O)n(CCN3CCOCC3)c12`, the GI50 with OVCAR-4 ovarian is 3.4 µM; in the assay with HCC-2998 colon it was 2.81 µM; in the assay on NCI-H522 lung, 3.11 µM; with RXF 393 renal it was 2.72 µM; with NCI-H226 lung, 3.19 µM; in the assay on OVCAR-5 ovarian it was 3.96 µM. Further, the GI50 in the assay on EKVX NSCLC was 3.59 µM; in the assay with DU-145 prostate, 5.03 µM; in the assay with NCI-H23 lung it was 3.54 µM. The TGI in the assay on OVCAR-4 ovarian is 14.1 µM; in the assay on HCC-2998 colon, 9.34 µM; in the assay with NCI-H522 lung, 9.35 µM; in the assay on RXF 393 renal, 6.98 µM; in the assay with NCI-H226 lung, 15.9 µM; in the assay with OVCAR-5 ovarian, 23.5 µM. Besides, the values for the TGI in the assay on EKVX NSCLC, in the assay with DU-145 prostate and with NCI-H23 lung were 15 µM, 16.7 µM and 14.7 µM, respectively.
